Reference: PMC4938538, “Inhibition of Pig Phosphoenolpyruvate Carboxykinase Isoenzymes by 3-Mercaptopicolinic Acid and Novel Inhibitors” (PLoS ONE, 2016)
Changes are numbered by the printed parent chain. Where “and” joins values, the source holds several entries; their conditions need not be identical. Equal values may be shown once. Entries after “also recorded” stand apart in the source; their conditions may differ. Read-outs that look alike come from different tables or passages of the source.

Columns and labels:
PEPCK-C 139Met = molecular target: T1, PEPCK-C 139Met (Sus scrofa, UniProt A0A4X1UM84); test: 3-MP inhibition kinetics (double reciprocal, secondary and Dixon plots); type: biochemical, pig; design: made in house; host or cells: Escherichia coli BL21 (DE3)
T1 sequence (A0A4X1UM84 1-622): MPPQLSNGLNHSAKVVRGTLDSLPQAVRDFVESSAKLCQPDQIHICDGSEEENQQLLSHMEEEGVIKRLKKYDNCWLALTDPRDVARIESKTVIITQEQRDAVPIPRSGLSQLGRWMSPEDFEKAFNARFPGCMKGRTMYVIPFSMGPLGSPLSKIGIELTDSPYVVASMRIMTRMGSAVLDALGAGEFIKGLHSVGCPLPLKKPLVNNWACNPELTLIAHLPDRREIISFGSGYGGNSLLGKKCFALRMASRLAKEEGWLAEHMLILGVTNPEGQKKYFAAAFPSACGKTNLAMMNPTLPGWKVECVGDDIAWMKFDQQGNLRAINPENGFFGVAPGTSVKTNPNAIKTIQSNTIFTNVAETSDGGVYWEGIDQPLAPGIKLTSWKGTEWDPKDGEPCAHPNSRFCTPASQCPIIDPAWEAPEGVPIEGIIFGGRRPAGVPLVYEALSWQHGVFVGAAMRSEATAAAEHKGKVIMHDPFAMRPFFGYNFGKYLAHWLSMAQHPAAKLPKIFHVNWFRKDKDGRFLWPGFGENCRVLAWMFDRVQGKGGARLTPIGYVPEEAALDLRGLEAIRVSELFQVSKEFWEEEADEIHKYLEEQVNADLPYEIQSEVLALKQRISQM
Description: (§1) PEPCK-C activity was measured in an UNICAM 500 spectrometer (UNICAM Analytical Systems, UK) with coupled spectrophotometric assays using pyruvate kinase and lactate dehydrogenase as auxiliary enzymes in PEP synthesis reaction and malate dehydrogenase in the reverse reaction.
(§2) 3-MP inhibitions assays in OAA synthesis direction were carried out as described before with the exception of the variable substrate (50–600 μM for PEP and 10–100 μM for GDP) and 3-MP concentration (10–100 μM). Assays in the direction of PEP synthesis were performed in 1 mL of a 100 mM HEPES buffer pH 7.4, containing 10 mM DTT, 0.2 mM MnCl2, 2 mM MgCl2, 1 mM GTP or 400 μM OAA, 1 mM ADP, 0.2 mM NADH, PEPCK-C and 5 units of each pyruvate kinase and lactate dehydrogenase. Reactions were initiated by addition of OAA. Variable substrates were 5–50 μM OAA or 25–500 μM GTP and 3-MP concentrations were between 10–400 μM. Rates were calculated by measuring the decreasing slope at 340 nm of absorbance after subtracting the rate of spontaneous NADH oxidation in the case of OAA synthesis or the rate of the blank which contained all the components of the mix but PEPCK-C in the case of PEP synthesis.
(§3) 3-MP inhibition assays were fitted in double reciprocal plots. To describe the mixed non-competitive inhibition, the double reciprocal equation can be written as: 1/v = Km/Vmax (1+[I]/Ki) 1/[S]+1/Vmax (1+[I]/αKi) (2)
(§4) Ki and αKi are the dissociation constants of the enzyme-inhibitor complex and the enzyme-inhibitor-substrate complex, respectively.
(§5) The equation for the Dixon plot is: 1/v = Km/Vmax[S]+1/Vmax+Km/Vmax[S]Ki (5)

PEPCK-C 139Leu = molecular target: T2, PEPCK-C 139Leu (Sus scrofa, UniProt A0A4X1UM84, M139L); test: as above; type: biochemical, pig
T2 construct: made in house; host or cells: Escherichia coli BL21 (DE3)
T2 sequence (A0A4X1UM84 1-622 M139L): T1 sequence (A0A4X1UM84 1-622) with M139L
Description: as §1, §2, §3, §4, §5

Pattern of inhibition (GDP) (PEPCK-C 139Met; 139Met, GDP as variable substrate): uncompetitive inhibitor | Pattern of inhibition (GTP) (PEPCK-C 139Met; 139Met, GTP as variable substrate): uncompetitive inhibitor | αKi (OAA) (PEPCK-C 139Met; 139Met, OAA as variable substrate, PEP synthesis direction): 49 ± 18 µM | Ki (PEPCK-C 139Met; 139Met, OAA as variable substrate, PEP synthesis direction, read-out: Ki (OAA)): 18 ± 4 µM | αKi (PEP) (PEPCK-C 139Met; 139Met, PEP as variable substrate, OAA synthesis direction): 20 ± 4 µM | Ki (PEPCK-C 139Met; 139Met, PEP as variable substrate, OAA synthesis direction, read-out: Ki (PEP)): 16 ± 2 µM | Ki (PEPCK-C 139Met; 139Met, with respect to GDP, Dixon plot, substrates saturating, read-out: Ki (GDP)): 45 ± 3 µM | Ki (PEPCK-C 139Met; 139Met, with respect to GTP, Dixon plot, substrates saturating, read-out: Ki (GTP)): 273 ± 68 µM | Ki fold lower for 139Met than 139Leu (GTP) (PEPCK-C 139Met; GTP as variable substrate): 3 fold | Ki fold lower for 139Met than 139Leu (OAA) (PEPCK-C 139Met; OAA as variable substrate): 1.6 fold | Pattern of inhibition (GDP) (PEPCK-C 139Leu; 139Leu, GDP as variable substrate): uncompetitive inhibitor | Pattern of inhibition (GTP) (PEPCK-C 139Leu; 139Leu, GTP as variable substrate): uncompetitive inhibitor | αKi (OAA) (PEPCK-C 139Leu; 139Leu, OAA as variable substrate, PEP synthesis direction): 21 ± 13 ns μM | Ki (PEPCK-C 139Leu; 139Leu, OAA as variable substrate, PEP synthesis direction, read-out: Ki (OAA)): 29 ± 1 µM | αKi (PEP) (PEPCK-C 139Leu; 139Leu, PEP as variable substrate, OAA synthesis direction): 31 ± 5 μM and 31 ± 5 ns μM | Ki (PEPCK-C 139Leu; 139Leu, PEP as variable substrate, OAA synthesis direction, read-out: Ki (PEP)): 19 ± 4 µM | Ki (PEPCK-C 139Leu; 139Leu, with respect to GDP, Dixon plot, substrates saturating, read-out: Ki (GDP)): 45 ± 0.8 µM | Ki (PEPCK-C 139Leu; 139Leu, with respect to GTP, Dixon plot, substrates saturating, read-out: Ki (GTP)): 873 ± 144 µM | Ki for 139Leu larger than for 139Met (OAA binding) (PEPCK-C 139Leu; OAA as variable substrate): 50%
SMILES: O=C(O)c1ncccc1S [3-MP, 3-mercaptopicolinic acid]
Pattern of inhibition (OAA) (PEPCK-C 139Met; 139Met, OAA as variable substrate): mixed non-competitive inhibitor; also recorded: Mixed NC | Pattern of inhibition (PEP) (PEPCK-C 139Met; 139Met, PEP as variable substrate): mixed non-competitive inhibitor; also recorded: Mixed NC | Pattern of inhibition (OAA) (PEPCK-C 139Leu; 139Leu, OAA as variable substrate): mixed non-competitive inhibitor; also recorded: Mixed NC | Pattern of inhibition (PEP) (PEPCK-C 139Leu; 139Leu, PEP as variable substrate): mixed non-competitive inhibitor; also recorded: Mixed NC
